Source: patent US20240293413A1, “COMPOUND AND METHOD FOR TREATING CHEMOTHERAPY-RELATED GASTROINTESTINAL SIDE EFFECTS” (ONQUALITY PHARMACEUTICALS CHINA LTD., priority 2021, published 2024)

System: Chemotherapeutic agent-caused diarrhea models of Balb/c mice
Assay: Examples 1-229 (Table 3): oral CDK inhibitor, relief of diarrhea caused by a chemotherapeutic agent;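 further: percent of treated mice whose diarrhea grade fell below chemotherapy-group average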
Type: in vivo
Source text: Construction of mouse animal models: Chemotherapeutic agent-caused diarrhea models of Balb/c mice were constructed according to the administration mode and frequency of the chemotherapeutic agent as shown in Table 3.
Balb/c mice were fed for 1 week, and then divided into groups. The experiment was divided into a control group, a chemotherapeutic agent group, and a CDK inhibitor group, each of which comprised 10 mice, to perform the administration experiment, for which the administration dosage, mode, time and frequency were shown in Table 3. The control group: being intragastrically administered with the same solvent as that used in the CDK inhibitor group (the time was shown in Table 3), and then being injected/intragastrically administered with the same solvent as that used in the chemotherapeutic agent group (the administration mode was shown in Table 3): the chemotherapeutic agent group: being intragastrically administered with the same solvent as that used in the CDK inhibitor group (the time was shown in Table 3), and then being injected/intragastrically administered with the chemotherapeutic agent (the type, administration mode and dosage were shown in Table 3); the CDK inhibitor group: being intragastrically administered with the CDK inhibitor (the time was shown in Table 3), and then being administered with the chemotherapeutic agent (the mode and dosage were shown in Table 3).
The diarrhea grading of mice was observed and recorded every day.

With `O=C1Nc2ccc([N+](=O)[O-])cc2/C1=C1/Nc2ccc(O)cc2/C1=N\O` [AGM-130] the “Relative remission rate (%)” value (Example 39, Fluorouracil (5-Fu) intraperitoneal injection 125 mg/kg single, CDK inhibitor oral 80 mg/kg single 12 h before, cycle 10 days) was 30%.
With `C[C@H]1CC[C@H](n2c3cnccc3c3cnc(Nc4ccc5c(n4)CCN(C(=O)CO)C5)nc32)CC1` [AMG925] the “Relative remission rate (%)” value (Example 219, Fluorouracil 100 mg/kg and oxaliplatin 10 mg/kg intraperitoneal injection single, CDK inhibitor oral 150 mg/kg single, 2 h before, 10 days) was 60%.
For `O=C(NC1CCNCC1)c1[nH]ncc1NC(=O)c1c(Cl)cccc1Cl` [AT-7519], the “Relative remission rate (%)” value (Example 205, Gemcitabine 60 mg/kg and paclitaxel 10 mg/kg intravenous injection single, CDK inhibitor oral 50 mg/kg single, 4 h before, 8 days) was 20%.
With `CN1CC[C@H](c2c(O)cc(O)c3c(=O)cc(-c4ccccc4Cl)oc23)[C@H](O)C1` [Alvocidib] the “Relative remission rate (%)” value (Example 119, Irinotecan (CPT-11) intraperitoneal injection 240 mg/kg single, CDK inhibitor oral 70 mg/kg single 6 h before, cycle 7 days) was 40% and the “Relative remission rate (%)” value (Example 201, Gemcitabine 60 mg/kg and paclitaxel 10 mg/kg intravenous injection single, CDK inhibitor oral 70 mg/kg single, 6 h before, 8 days) was 50%.
With `COc1cc(F)ccc1-c1ncnc(Nc2cccc(C[S@](C)(=N)=O)c2)n1` [Atuveciclib] the “Relative remission rate (%)” value (Example 158, Docetaxel (DTX) intraperitoneal injection 10 mg/kg single, CDK inhibitor oral 50 mg/kg single 10 h before, cycle 8 days) was 30%.
`COc1cc(F)ccc1-c1cc(Nc2cc(CS(C)(=N)=O)ccn2)ncc1F` (centres unmarked) [BAY-1251152] was tested, and the “Relative remission rate (%)” value (Example 38, Fluorouracil (5-Fu) intraperitoneal injection 125 mg/kg single, CDK inhibitor oral 60 mg/kg single 8 h before, cycle 10 days) was 20%.
`CN1CCN(C(=O)c2ccc3cc(CCNc4ncnc5ccc(C#N)cc45)ccc3c2)CC1` [BCD-115] was tested, and the “Relative remission rate (%)” value (Example 157, Docetaxel (DTX) intraperitoneal injection 10 mg/kg single, CDK inhibitor oral 80 mg/kg single 10 h before, cycle 8 days) was 40% and the “Relative remission rate (%)” value (Example 217, Fluorouracil 100 mg/kg and irinotecan 200 mg/kg intravenous injection single, CDK inhibitor oral 80 mg/kg single, 4 h before, 10 days) was 20%.
In the case of `CC(=O)c1c(C)c2cnc(Nc3ccc(C4CCN(CCS(C)(=O)=O)CC4)cn3)nc2n(C2CCCC2)c1=O` [BEBT-209], the “Relative remission rate (%)” value (Example 187, Gemcitabine (GEM) intraperitoneal injection 120 mg/kg single, CDK inhibitor oral 80 mg/kg single, 4 h before, 8 days) is reported as 40% and the “Relative remission rate (%)” value (Example 207, Carboplatin 5 mg/kg and paclitaxel 10 mg/kg intraperitoneal injection single, CDK inhibitor oral 80 mg/kg single, 4 h before, 10 days) is reported as 50%.
For `Nc1nccc(-c2ccc(O)c(-c3ccnc(N)n3)n2)n1` [BEY-1107], the “Relative remission rate (%)” value (Example 154, Docetaxel (DTX) intraperitoneal injection 10 mg/kg single, CDK inhibitor oral 150 mg/kg single 8 h before, cycle 8 days) was 40% and the “Relative remission rate (%)” value (Example 216, Fluorouracil 100 mg/kg and irinotecan 200 mg/kg intravenous injection single, CDK inhibitor oral 150 mg/kg single, 2 h before, 10 days) was 30%.
For `CCN1CCN(Cc2ccc(Nc3ncc(F)c(-c4cc(F)c5nc6n(c5c4)C(C)CCC6)n3)nc2)CC1` (centres unmarked) [BPI-16350], the “Relative remission rate (%)” value (Example 30, Fluorouracil (5-Fu) intraperitoneal injection 125 mg/kg single, CDK inhibitor oral 150 mg/kg single 6 h before, cycle 10 days) was 80%, the “Relative remission rate (%)” value (Example 71, Oxaliplatin intraperitoneal injection 20 mg/kg single, CDK inhibitor oral 150 mg/kg single 4 h before, cycle 8 days) was 40% and the “Relative remission rate (%)” value (Example 196, Gemcitabine 60 mg/kg and paclitaxel 10 mg/kg intraperitoneal injection single, CDK inhibitor oral 150 mg/kg single, 2 h before, 8 days) was 50%.
In the case of `Cl.Cl.Cl.Cl.OC[C@@H](O)[C@@H](CO)N1CCNCCNCCNCC1` [CS-3002], the “Relative remission rate (%)” value (Example 149, Docetaxel (DTX) intraperitoneal injection 10 mg/kg single, CDK inhibitor oral 200 mg/kg single 4 h before, cycle 8 days) is reported as 70% and the “Relative remission rate (%)” value (Example 223, Fluorouracil 100 mg/kg and oxaliplatin 10 mg/kg intraperitoneal injection single, CDK inhibitor oral 200 mg/kg single, 2 h before, 10 days) is reported as 50%.
For `CN1CCN(C2CCN(c3ccc(Nc4ncc5sc(C(=O)N(C)C)c(C6CCCC6)c5n4)nc3)CC2)CC1` [FCN437], the “Relative remission rate (%)” value (Example 147, Docetaxel (DTX) intraperitoneal injection 10 mg/kg single, CDK inhibitor oral 90 mg/kg single 8 h before, cycle 8 days) was 60% and the “Relative remission rate (%)” value (Example 206, Carboplatin 5 mg/kg and paclitaxel 10 mg/kg intraperitoneal injection single, CDK inhibitor oral 90 mg/kg single, 4 h before, 10 days) was 40%.
With `CC1CCC(n2c3cnccc3c3cnc(Nc4ccc5c(n4)CCN(C(=O)CO)C5)nc32)CC1` (centres unmarked) [FLX-925] the “Relative remission rate (%)” value (Example 27, Fluorouracil (5-Fu) intraperitoneal injection 125 mg/kg single, CDK inhibitor oral 75 mg/kg single 4 h before, cycle 10 days) was 50%, the “Relative remission rate (%)” value (Example 69, Oxaliplatin intraperitoneal injection 20 mg/kg single, CDK inhibitor oral 75 mg/kg single 4 h before, cycle 8 days) was 60% and the “Relative remission rate (%)” value (Example 85, Oxaliplatin intravenous injection 17.5 mg/kg single, CDK inhibitor oral 75 mg/kg single 6 h before, cycle 8 days) was 60%. The “Relative remission rate (%)” value (Example 114, Irinotecan (CPT-11) intramuscular injection 250 mg/kg single, CDK inhibitor oral 75 mg/kg single 4 h before, cycle 7 days) was 50%.
`CC[C@H](Nc1nc(NCc2cnc(C)cc2C)c2ncn(C(C)C)c2n1)[C@@H](C)O` [Fadraciclib] was tested, and the “Relative remission rate (%)” value (Example 122, Irinotecan (CPT-11) intraperitoneal injection 240 mg/kg single, CDK inhibitor oral 80 mg/kg single 8 h before, cycle 7 days) was 30% and the “Relative remission rate (%)” value (Example 159, Docetaxel (DTX) intraperitoneal injection 10 mg/kg single, CDK inhibitor oral 80 mg/kg single 12 h before, cycle 8 days) was 20%.
